Results on 5 compounds are retold here after patent US20250115598A1 (Anaxis Pharma Pty Ltd, priority 2021, published 2025).

Where only a bound is given, the exact number is not on record here.

Assay [1] has as its system Immortalised Mouse Dermal Fibroblasts (MDFs). Put plainly: Cellular assay: inhibition of TSI induced necroptosis, CellTitre-Glo viability. Conditions: Mus musculus, Fibroblast; MDF, 3 hours TSI cocktail, Table 27; read-out: Inhibition of TSI-induced necroptosis (IC50 cell-based assay) in MDF. In outline: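 Necroptosis induced for 3 h with TSI: rhTNF 100 ng/ml, Smac mimetic 500 nM, caspase inhibitor IDN-6556 10 μM. Mouse dermal fibroblasts had received compound (36 μM top, ten three-fold steps) 30 min beforehand. ATP-based viability scaled between untreated and TSI-only wells; IC50 taken as 4-parameter curve inflection.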

Assay [2] concerns the target endogenous MLKL in U937 (Homo sapiens (Human), UniProt Q8NB16). Put plainly: Degradation assay: endogenous MLKL in U937 (western blot). Conditions: U937, 24 h incubation, read-out: Degradation of endogenous MLKL in U937 (DC50 cell-based assay). The method, then:
Degradation Assay: Screening Compounds Procedure to Evaluate the Activity of Compounds in Degrading Endogenous MLKL in Human and Mouse Cell
The mouse dermal fibroblast (MDF) cell line was seeded the day before the experiment in a 24-well plate at a cell density of […] per well in a volume of 0.5 mL per well and left to attach overnight. The human monocyte cell line (U937) was seeded on the day of the experiment in a 24-well plate at a cell density of […] per well in a volume of 0.5 mL per well.
The compound was diluted in DMSO with a starting concentration of 10 mM and titrated stepwise with a dilution of 1:5. 0.5 μL of the compound dilution was added to the appropriate well to achieve a final concentration of 10; 2; 0.4; 0.08 and 0.016 μM. A DMSO only well was included as control.
The cells were incubated for 24 h in the presence of the compound at 37° C. and 10% CO2.
After the 24 h incubation period, the medium was removed and cells washed with 0.5 mL PBS. The cells were then lysed directly in 60 μL of 1×SDS gel loading buffer.
The cell lysate was heat-denatured at […] for 10 min. 10 μL of lysate per well were run on 18-well 4-15% Criterion TGX stain free gels (BIO-RAD). The proteins were then transferred onto nitrocellulose membrane with a wet transfer protocol in the Criterion Blotter (BIO-RAD).
Membranes were blocked with 5% skim milk in TBST. Primary antibody against MLKL (clone 3H1, MABC604 Merck) was used at 1:2000 dilution in TBST with 1% BSA and left shaking over night at 4° C. After washes with TBST, the membranes were incubated with goat anti-rat IgG HRP-conjugated antibody (Southern Biotech) in 1% skim milk TBST at 1:10000 dilution for 1 h at room temperature. After TBST washes the bands were imaged on the ChemiDoc MP Imaging System (BIO-RAD) with Immobilion Western Chemiluminescent HRP Substrate Forte (Millipore). The loading control GAPDH was probed for with rabbit anti-GAPDH (CST 14C10) at 1:2000 dilution in 1% BSA TBST over night at 4° C. TBST washes were followed by incubation with goat anti-rabbit IgG HRP-conjugated antibody (Southern Biotech) in 1% skim milk TBST at 1:10000 dilution for 1 h at room temperature followed by TBST washes. The signal was detected as described above.
The band intensity was measured in the ImageLab Software (BIO-RAD) and the MLKL values adjusted for loading with GAPDH. The percentage of degradation was calculated by normalizing the compound treated values to the DMSO only control.
In general terms: A western blot detects proteins with antibodies after separation by electrophoresis.

Assay [3] concerns the target endogenous MLKL in MDF (Mus musculus (Mouse), UniProt Q9D2Y4). The assay is described as follows: Degradation assay: endogenous MLKL in MDF (western blot). Conditions: MDF cells, 24 h incubation with compound, MLKL adjusted for loading with GAPDH, normalized to DMSO only control, read-out: Degradation of endogenous MLKL in MDF (DC50 cell-based assay). Put shortly:
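Western blot band intensity of MLKL, adjusted to GAPDH loading and normalized to DMSO-only wells, gave percent degradation. Compound exposure lasted 24 h at final concentrations of 10–0.016 μM in 1:5 steps, in mouse dermal fibroblasts or human U937 cells.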

In assay [4] the target is human MLKL (full length) (Homo sapiens (Human), UniProt Q8NB16). The assay is described as follows: KINOMEscan binding assay, human MLKL (full length). Conditions: hMLKL, Table 25; read-out: MLKL (KD). Put shortly: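 Compound dilutions (11 points, 3-fold, mostly from 30,000 nM, 1% DMSO final) competed with immobilized ligand for DNA- or phage-tagged protein, and bead-bound protein was measured by qPCR. Kd values came from Hill-equation fits with slope −1 (Levenberg-Marquardt).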
Chain of human MLKL (full length) (Q8NB16 whole entry): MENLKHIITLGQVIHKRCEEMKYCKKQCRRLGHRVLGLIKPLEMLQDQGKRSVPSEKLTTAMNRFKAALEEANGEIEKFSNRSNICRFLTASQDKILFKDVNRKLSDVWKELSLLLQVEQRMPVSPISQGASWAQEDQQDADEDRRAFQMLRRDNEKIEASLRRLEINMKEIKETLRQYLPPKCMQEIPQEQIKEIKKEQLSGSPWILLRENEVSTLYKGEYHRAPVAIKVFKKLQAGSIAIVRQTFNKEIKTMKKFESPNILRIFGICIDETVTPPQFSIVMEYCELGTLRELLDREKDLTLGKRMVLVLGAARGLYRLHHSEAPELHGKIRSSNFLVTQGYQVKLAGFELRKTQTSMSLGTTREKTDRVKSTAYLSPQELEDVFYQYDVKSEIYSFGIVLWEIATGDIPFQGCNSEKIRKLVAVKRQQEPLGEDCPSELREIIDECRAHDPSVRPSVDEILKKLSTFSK

Chain of endogenous MLKL in MDF (Q9D2Y4 whole entry): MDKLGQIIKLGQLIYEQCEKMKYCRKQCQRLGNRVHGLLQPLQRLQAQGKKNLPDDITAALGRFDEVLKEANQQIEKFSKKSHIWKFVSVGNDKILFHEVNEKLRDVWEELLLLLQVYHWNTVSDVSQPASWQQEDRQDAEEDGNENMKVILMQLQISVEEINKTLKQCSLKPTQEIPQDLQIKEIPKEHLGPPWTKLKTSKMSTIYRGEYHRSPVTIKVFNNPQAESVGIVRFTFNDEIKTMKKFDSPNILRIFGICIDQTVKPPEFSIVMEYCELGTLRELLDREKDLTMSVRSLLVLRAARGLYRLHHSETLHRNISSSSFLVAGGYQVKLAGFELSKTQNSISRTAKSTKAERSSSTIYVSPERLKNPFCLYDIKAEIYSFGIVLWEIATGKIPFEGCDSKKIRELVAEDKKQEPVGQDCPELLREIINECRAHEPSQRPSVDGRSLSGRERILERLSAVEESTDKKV
Chain of endogenous MLKL in U937 (Q8NB16 whole entry): as the sequence (Q8NB16 whole entry) above

Usually IC50 stands for the point on the concentration scale where inhibition reaches its midpoint. As a reminder, the DC50 is the concentration at which degradation of the target reaches its halfway point. As usually defined, the Kd is the constant that tells how readily two partners part at equilibrium. In the case of `C[C@H](Oc1cc(-c2nn(C)c3c(-c4cnn(C5CCN(C(=O)COc6cccc7c6C(=O)N(C6CCC(=O)NC6=O)C7=O)CC5)c4)cnc(N)c23)ccc1NS(=O)(=O)C(F)F)c1ccc(F)cc1` (stereo partly drawn) [Compound 1082, N-[4-(4-amino-7-{1-[1-(2-{[2-(2,6-dioxopiperidin-3-yl)-1,3-dioxo-2,3-dihydro-1H-isoindol-4-yl]oxy}acetyl)piperidin-4-yl]-1H-pyrazol-4-yl}-1-methyl-1H-pyrazolo[4,3-c]pyridin-3-yl)-^2-[(1S)-1-(4-fluorophenyl)ethoxy]phenyl]-1,1-difluoromethanesulfonamide], in assay [1], the IC50 was in the range of 1000 to 10000 nM. The half-maximal degradation concentration (DC50) was < 1000 nM in assay [2] and 1000 to 10000 nM in assay [3]. Moreover, the Kd in assay [4] was < 10 nM.

In the case of `C[C@H](Oc1cc(-c2nn(C)c3c(-c4cnn(C5CCN(C[C@H]6C[C@H](Nc7cccc8c7C(=O)N(C7CCC(=O)NC7=O)C8=O)C6)CC5)c4)cnc(N)c23)ccc1NS(=O)(=O)C(F)F)c1ccc(F)cc1` (stereo partly drawn) [Compound 1108, N-(4-{4-amino-1-methyl-7-[1-(1-{[(trans)-3-{[2-(2,6-dioxopiperidin-3-yl)-1,3-dioxo-2,3-dihydro-1H-isoindol-4-yl]amino}cyclobutyl]methyl}piperidin-4-yl)-1H-pyrazol-4-yl]-1H-pyrazolo[4,3-c]pyridin-3-yl}-2-[(1S)-1-(4-fluorophenyl)ethoxy]phenyl)-1,1-difluoromethane-sulfonamide], the IC50 in assay [1] was < 1000 nM. The DC50 in assay [2] was 1000 to 10000 nM; in assay [3], < 1000 nM. In assay [4], the Kd is < 10 nM.

Turning to `Cn1nc(-c2ccc(NS(=O)(=O)C(F)F)c(F)c2)c2c(N)ncc(-c3cnn(C4CCN(C(=O)CCC5CCN(c6cccc7c6C(=O)N(C6CCC(=O)NC6=O)C7=O)CC5)CC4)c3)c21` (stereo not drawn) [Compound 1113, N-[4-(4-amino-7-{1-[1-(3-{1-[2-(2,6-dioxopiperidin-3-yl)-1,3-dioxo-2,3-dihydro-1H-isoindol-4-yl]piperidin-4-yl}propanoyl)piperidin-4-yl]-1H-pyrazol-4-yl}-1-methyl-1H-pyrazolo[4,3-c]pyridin-3-yl}-2-fluorophenyl]-1,1-difluoromethanesulfonamide], the IC50 in assay [1] was 1000 to 10000 nM. The DC50 in assay [2] and in assay [3] was < 1000 nM throughout. Also, in assay [4], the dissociation constant Kd was < 10 nM.

Turning to `Cc1ncsc1-c1ccc(C(COCC(=O)N2CCC(n3cc(-c4cnc(N)c5c(-c6ccc(NS(=O)(=O)C(F)F)c(O[C@@H](C)c7ccc(F)cc7)c6)nn(C)c45)cn3)CC2)NC(=O)[C@@H]2C[C@@H](O)CN2C(=O)[C@@H](NC(=O)C2(F)CC2)C(C)(C)C)cc1` (stereo partly drawn) [Compound 1104, (2S,4R)—N-(2-{2-[4-(4-{4-amino-3-[4-(difluoromethanesulfonamido)-3-[(1 S)-1-(4-fluorophenyl)ethoxy]phenyl]-1-methyl-1H-pyrazolo[4,3-c]pyridin-7-yl}-1H-pyrazol-1-yl)piperidin-1-yl]-2-oxoethoxy}-1-[4-(4-methyl-1,3-thiazol-5-yl)phenyl]ethyl)-1-[(2S)-2-[(1-fluorocyclopropyl)formamido]-3,3-dimethylbutanoyl]-4-hydroxypyrrolidine-2-carboxamide], in assay [1], the IC50 was in the range of 1000 to 10000 nM. For the same compound, the DC50 in assay [2] and in assay [3] was < 1000 nM in each case.

As for `C[C@H](Oc1cc(-c2nn(C)c3c(-c4cnn(C5CCN(C(=O)N6CC(Nc7cccc8c7C(=O)N(C7CCC(=O)NC7=O)C8=O)C6)CC5)c4)cnc(N)c23)ccc1NS(=O)(=O)C(F)F)c1ccc(F)cc1` (stereo partly drawn) [Compound 1124, N-[4-(4-amino-7-{1-[1-(3-{[2-(2,6-dioxopiperidin-3-yl)-1,3-dioxo-2,3-dihydro-1H-isoindol-4-yl]amino}azetidine-1-carbonyl)piperidin-4-yl]-1H-pyrazol-4-yl}-1-methyl-1H-pyrazolo[4,3-c]pyridin-3-yl}-2-[(1S)-1-(4-fluorophenyl)ethoxy]phenyl]-1,1-difluoromethanesulfonamide], the concentration for half-maximal inhibition (IC50) in assay [1] is < 1000 nM. Besides, the half-maximal degradation concentration (DC50) in assay [2] and in assay [3] was < 1000 nM throughout.
